Assay results from ChEMBL document CHEMBL5576055, “Design, synthesis, and biological evaluation of chalcone acetamide derivatives against triple negative breast cancer” (Bioorg Med Chem Lett, 2024).
Values belong to the molecule of their own block, whether it stands above or below them. Active and inactive are the calls of the source. The rule behind the calls is not given here.

Columns and labels:
[1] = system: HCT-116; experiment: Antiproliferative activity against human HCT-116 cells assessed as inhibition of cell growth measured after 48 hrs by SRB method; format: functional, cell-based; details: HCT-116, 48 h
[2] = Antiproliferative activity against HEK293 cells assessed as inhibition of cell growth measured after 48 hrs by SRB method; format: toxicity, cell-based; details: human
[3] = system: MCF7; experiment: Antiproliferative activity against human MCF7 cells assessed as inhibition of cell growth measured after 48 hrs by SRB method; format: functional, cell-based; details: MCF7, 48 h
[4] = system: A549; experiment: Antiproliferative activity against human A549 cells assessed as inhibition of cell growth measured after 48 hrs by SRB method; format: functional, cell-based; details: A549, 48 h
[5] = system: MDA-MB-231; experiment: Antiproliferative activity against human MDA-MB-231 cells assessed as inhibition of cell growth measured after 48 hrs by SRB method; format: functional, cell-based; details: MDA-MB-231, 48 h
[6] = system: MDA-MB-468; experiment: Antiproliferative activity against human MDA-MB-468 cells assessed as inhibition of cell growth measured after 48 hrs by SRB method; format: functional, cell-based; details: MDA-MB-468, 48 h
[7] = system: MDA-MB-231; experiment: Induction of apoptosis in human MDA-MB-231 cells assessed as effect on bax/bcl-2 ratio by Western blot analysis; format: functional, cell-based
[8] = system: MDA-MB-231; experiment: Induction of apoptosis in human MDA-MB-231 cells assessed as increase in caspase-3 expression by Western blot analysis; format: functional, cell-based
[9] = system: MDA-MB-231; experiment: Induction of apoptosis in human MDA-MB-231 cells assessed as reduction in Bcl-2 expression by Western blot analysis; format: functional, cell-based
[10] = system: MDA-MB-231; experiment: Induction of apoptosis in human MDA-MB-231 cells assessed as upregulation of bax expression by Western blot analysis; format: functional, cell-based
[11] = system: HCT-116; experiment: Antiproliferative activity against human HCT-116 cells assessed as inhibition of cell growth at 20 uM by SRB method relative to control; format: functional; parameters: scale not given: the % may be the effect or the level left
[12] = Selectivity index, ratio of IC50 for HEK293 cells to IC50 for human MDA-MB-231 cells; format: toxicity; details: HEK293 cells versus MDA-MB-231 cells, read-out: Ratio IC50
[13] = system: MDA-MB-231; experiment: Inhibition of colony formation in human MDA-MB-231 cells assessed as reduction in number of colonies at 4 to 16 uM incubated for 24 hrs; format: functional, cell-based; details: dose 4-16 µM
[14] = system: MDA-MB-231; experiment: Induction of ROS generation in human MDA-MB-231 cells measured after 48 hrs by DCFDA staining based fluorescent microscopic analysis; format: functional, cell-based; details: dose 4-16 µM
[15] = system: MDA-MB-231; experiment: Inhibition of colony formation in human MDA-MB-231 cells assessed as reduction in colony size at 4 to 16 uM incubated for 24 hrs; format: functional, cell-based; details: dose 4-16 µM
[16] = system: Cell membrane; experiment: Induction of mitochondrial membrane potential loss in human MDA-MB-231 cells assessed as reduction in fluorescence measured after 48 hrs by rhodamine-123 dye based fluorescence assay; details: dose 4-16 µM
[17] = system: MDA-MB-231; experiment: Inhibition of colony formation in human MDA-MB-231 cells incubated for 24 hrs; format: functional, cell-based; details: dose 4-16 µM
[18] = system: MCF7; experiment: Antiproliferative activity against human MCF7 cells assessed as inhibition of cell growth at 20 uM by SRB method relative to control; format: functional; parameters: scale not given: the % may be the effect or the level left
[19] = system: MDA-MB-231; experiment: Induction of apoptosis in human MDA-MB-231 cells assessed as chromatin condensation at 4 to 16 uM measured after 48 hrs by DAPI staining based fluorescent microscopic analysis; format: functional, cell-based; details: dose 4-16 µM
[20] = system: A549; experiment: Antiproliferative activity against human A549 cells assessed as inhibition of cell growth at 20 uM by SRB method relative to control; format: functional; parameters: scale not given: the % may be the effect or the level left
[21] = system: MDA-MB-468; experiment: Antiproliferative activity against human MDA-MB-468 cells assessed as inhibition of cell growth at 20 uM by SRB method relative to control; format: functional; parameters: scale not given: the % may be the effect or the level left
[22] = system: MDA-MB-231; experiment: Induction of apoptosis in human MDA-MB-231 cells assessed as cell blebbing at 4 to 16 uM measured after 48 hrs by DAPI staining based fluorescent microscopic analysis; format: functional; details: dose 4-16 µM
[23] = Selectivity index, ratio of IC50 for HEK293 cells to IC50 for human MDA-MB-468 cells; format: toxicity; details: HEK293 cells versus MDA-MB-468 cells, read-out: Ratio IC50
[24] = system: MDA-MB-231; experiment: Antiproliferative activity against human MDA-MB-231 cells assessed as inhibition of cell growth at 20 uM by SRB method relative to control; format: functional; parameters: scale not given: the % may be the effect or the level left
[25] = Selectivity index, ratio of IC50 for HEK293 cells to IC50 for human MCF7 cells; format: toxicity; details: HEK293 cells versus MCF7 cells, read-out: Ratio IC50
[26] = system: MDA-MB-231; experiment: Antiproliferative activity against human MDA-MB-231 cells; format: functional, cell-based

IC50 [1]: 17.4 µM
IC50 [3]: 22.7 µM
SMILES: COc1ccc(/C=C/C(=O)c2ccc(OCC(=O)N3CCCCC3)cc2)cc1
IC50 at 48 h [2]: 10.8 µM

IC50 [1]: 18.3 µM
Activity [16]: Dose-Dependent Effect
IC50 [4]: 17.1 µM
IC50 [5]: 9.42 µM
IC50 [3]: 16.2 µM
IC50 [6]: 10.1 µM
SMILES: COc1ccc(/C=C/C(=O)c2ccc(OCC(=O)N3CCCC3)cc2)cc1
Activity [7]: Active
Activity [8]: Active
Activity [9]: Active
Activity [10]: Active
Activity [11]: ~60%
selectivity ratio [12]: 4.14
inhibition [13]: Active
Activity [14]: Dose-Dependent Effect
inhibition [15]: Active
inhibition [17]: Dose-Dependent Effect
Activity [18]: ~60%
Activity [19]: Active
IC50 at 48 h [2]: 39.1 µM
Activity [20]: ~60%
Activity [21]: ~60%
Activity [22]: Active
selectivity ratio [23]: 3.85
Activity [24]: ~60%
selectivity ratio [25]: 2.41

IC50 [1]: 15.2 µM
IC50 [4]: 45.4 µM
SMILES: COc1ccc(/C=C/C(=O)c2ccc(OCC(=O)N3CCSCC3)cc2)cc1

IC50 [1]: 18.9 µM
SMILES: COc1ccc(/C=C/C(=O)c2ccc(OCC(=O)NC3CCCCC3)cc2)cc1

More lines, now with the values behind:

SMILES: COc1ccc(/C=C/C(=O)c2ccc(OCC(=O)Nc3ncccc3Cl)cc2)cc1
IC50 [4]: 35.4 µM
IC50 [5]: 24.1 µM
IC50 [6]: 25.2 µM

SMILES: COc1ccc(/C=C/C(=O)c2ccc(OCC(=O)NCc3cc(OC)c(OC)c(OC)c3)cc2)cc1
IC50 [1]: 10.5 µM
IC50 at 48 h [2]: 15.2 µM

SMILES: COc1cccc(C(=O)/C=C/c2ccc(N(CCCl)CCCl)cc2)c1
IC50 [26]: 3940 µM

SMILES: COc1ccc(/C=C/C(=O)c2ccc(OCC(=O)NCCc3ccccc3)cc2)cc1
IC50 at 48 h [2]: 23.4 µM
